Measured values taken from US4564476A, “Aryl fatty acid leukotriene synthesis inhibitors” (McNeilab, Inc., priority 1984, dated 1986).
pIC50: −log10 of the molar value.

Assays:
[1] = test system: guinea pig lung parenchymal tissue; assay: Immunologically Mediated Contraction of the Parenchymal Strip (IMCPS); design: species or system guinea pig (male Hartley strain); settings: Cavia porcellus, egg albumin induced contraction of sensitized guinea pig lung parenchymal strip, with chlorpheniramine 10.0 μM and indomethacin 100.0 μM, relative to control tissue, read-out: IMCPS % inhib. 100 μM
Procedure: (a) Immunologically Mediated Contraction of the Parenchymal Strip (IMCPS)
It is a modification of the procedure published by K. Forsberg and L. Sorenby in Agents and Actions, Vol. 9 pp. 364-368 (1978). In this test, male Hartley strain guinea pigs weighing 400 to 600 g were sensitized by subcutaneous administration of chicken egg albumin (Sigma A-5503, 1.0 mg, 0.5% solution) and bordetella pertussis, 11×10^9 cells (Massachusetts Public Health Biological Labs) 4 to 8 weeks prior to the experiment. The animals were sacrificed, the heart and lungs were removed en bloc and placed in Krebs solution at room temperature. Lung strips (2.5 cm in length) were cut from the peripheral edge of each lobe. Two strips were removed from each animal and were trimmed to be of equal length. Each strip was suspended in an isolated organ bath (10.0 ml) containing oxygenated Krebs buffer solution at 37.5° C. then attached to a force displacement transducer (Grass FT03) and placed under an initial tension of 1.0 g. The tissues were allowed to equilibrate for 45-60 minutes, during which the bathing solution was changed several times. At the end of the equilibration period, chlorpheniramine (10.0 μM) and indomethacin (100.0 μM) were added to eliminate the contribution of histamine and prostaglandins to the contractile response. The two tissues from each animal were matched so that one tissue served as a control, and the test drug dissolved in DMSO was added to the bath containing the other tissue at a final concentration of 100 μM. After 30 minutes, egg albumin was added to each bath and the contractile response was measured as milligrams of tension developed as recorded on a Grass Model 7D polygraph.

[2] = test system: lipoxygenase metabolites released or generated from human granulocyte cells; assay: Human Granulocyte Assay for Lipoxygenase Products (HGALP); format: cell-based; settings: [3H]-arachidonic acid prelabeled human granulocytes, 10 μM ionophore A23187 challenge, 14 μM indomethacin
Procedure: (b) Human Granulocyte Assay for Lipoxygenase Products (HGALP)
This test is a measurement of the inhibition of the synthesis or release of [3H]-labeled lipoxygenase metabolites released or generated from human granulocyte cells that are prelabeled with [3H]-arachidonic acid. These metabolites include the leukotrienes (e.g., LTB4) which are potent mediators of inflammation and allergy. In this test, a granulocyte enriched fraction is prepared from freshly drawn human blood (50 ml/donor) by standard techniques involving unit gravity separation on ficoll hypaque. Cells are prelabeled with [3H]-arachidonic acid (20 μCi in 2 ml cell suspension) during a 30 min. incubation at 37° C. After washing out unincorporated label, the radiolabeled cells are brought up in incubation buffer (Minimum Essential Medium containing 14 μM indomethacin) to a 10^7 cell/ml concentration. Cell suspensions (1 ml/sample) are preincubated for 5 min. in the presence or absence of test drugs delivered in 5 μl dimethylsulfoxide (DMSO). Cell suspensions are challenged with 10 μM ionophore A23187 to activate the calcium-dependent metabolism of [3H]-arachidonic acid. After a 5 min. incubation at 37° C., incubations are terminated by the addition of 1 ml ice cold phosphate buffered saline, and cells are pelleted by centrifugation. Supernatants are passed through C18 Sep Pak® cartridges which are then washed twice with 1 ml water. Lipoxygenase metabolites are eluted with two 1 ml volumes of methanol. Eluates are collected in scintillation vials and counted in Aqueous Counting Scintillant (ACS). Radioactivity eluted with methanol is a measure of lipoxygenase metabolites. Values are normalized to vehicle (5 μl DMSO) treated controls and expressed as percent inhibition. Triplicate determinations at each drug concentration are analyzed as log-dose response curves by linear regression analysis from which IC50 values are derived.

[3] = test system: lipoxygenase metabolites released or generated from human granulocyte cells; assay: as above; format: cell-based; settings: [3H]-arachidonic acid prelabeled human granulocytes, 10 μM ionophore A23187

Structure (SMILES)	pIC50 [2]	inhibition at 100 µM [1] [%]	inhibition at 100 µM [3] [%]
CC(C)(/C=C\CCCC(=O)O)COCc1ccccc1 [Example 1c, 7,7-Dimethyl-8-(phenylmethoxy)-5(Z)-octenoic Acid]		79	
CN(C)C(=O)CCC/C=C\C(C)(C)COCc1ccccc1 [Example 2, N,N,7,7-Tetramethyl-8-(phenylmethoxy)-5(Z)-octenamide]	4.38	19	
CC(C)(/C=C\CCCCO)COCc1ccccc1 [Example 4, 7,7-Dimethyl-8-(phenylmethoxy)-5(Z)-octenol]	4.77	38	
COc1ccc(COCC(C)(C)/C=C\CCCC(=O)O)cc1 [Example 5c, 7,7-Dimethyl-8-(4-methoxyphenylmethoxy)-5(Z)-octenoic Acid]		31	18
CC(C)(/C=C\CCCC(=O)O)COCc1ccc(O)cc1 [Example 7, 7,7-Dimethyl-8-(4-hydroxyphenylmethoxy)-5(Z) Octenoic Acid]	3.59	4	
CC(C)(/C=C\CCCC(=O)O)COCC=Cc1ccccc1 [Example 10c, 7,7-Dimethyl-8-(3-phenyl-2-propenoxy)-5(Z) octenoic Acid]		44	5
CCCC=Cc1ccccc1COCC(C)(C)/C=C\CCCC(=O)O [Example 11g, 7,7-Dimethyl-8-[2(1-pentenyl)phenylmethoxy]-5(Z)octenoic acid]	4.02	40	

Continued, in another order:

pIC50 [2]	Structure (SMILES)	inhibition at 100 µM [1] [%]	inhibition at 100 µM [3] [%]
4.41	COC(=O)CCC/C=C\C(C)(C)COCc1ccc(O)cc1 [Example 6, Methyl 7,7-dimethyl-8-(4-hydroxyphenylmethoxy)-5(Z)-octenoate]	49	
5.18	COC(=O)CCC/C=C\C(C)(C)C=Cc1ccc(Cl)cc1 [Example 8c, Methyl 9-(4-chlorophenyl)-7,7-dimethyl-5(Z),8-nonadienoate]	15	
4.72	CC(C)(C=Cc1ccc(Cl)cc1)/C=C\CCCC(=O)O [Example 9, 9-(4-Chlorophenyl)-7,7-dimethyl-5(Z),8-nonadienoic acid]	76	
